The values below come from patent publication US10787452B2 (Vertex Pharmaceuticals Incorporated, priority 2012, dated 2020).

Molecules are shown by their SMILES.

The test system of this assay is HCT116 colorectal cancer cells. Nature of the assay: Cisplatin sensitization assay (96 h cell viability MTS).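 Further: compound concentration needed to lower the Cisplatin-alone IC50 by a set fold.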 It counts as cell-based. The following applies: 96 h MTS, compound plus Cisplatin. The procedure, abridged:
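Viability was measured by MTS after 96 h co-exposure of HCT116 colorectal cells to a full-matrix dilution grid of compound and cisplatin (2-fold steps, highest final concentration 10 μM, added together). Plates were kept at 37 °C in 5% CO2, and the MTS reagent was incubated for 1 h before reading.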

As to `Nc1nn2cc(F)cnc2c1C(=O)Nc1cncc(F)c1N1CCC(CN2CCOCC2)CC1` [I-N-149, 2-amino-6-fluoro-N-(5-fluoro-4-(4-(morpholinomethyl)piperidin-1-yl)pyridin-3-yl)pyrazolo[1,5-a]pyrimidine-3-carboxamide], the “Cisplatin Sensitization Assay” value is on record as “+++ (Compounds with a Cisplatin sensitization value of <0.02 μM are marked with “+++.”)”.
On to `COC1(C)CN(C(=O)C2CCN(c3ccncc3NC(=O)c3c(N)nn4cc(F)cnc34)CC2)C1` [I-G-79, 2-amino-6-fluoro-N-(4-(4-(3-methoxy-3-methylazetidine-1-carbonyl)piperidin-1-yl)pyridin-3-yl)pyrazolo[1,5-a]pyrimidine-3-carboxamide], for which the “Cisplatin Sensitization Assay” value was “+++ (Compounds with a Cisplatin sensitization value of <0.02 μM are marked with “+++.”)”.
Take `N#CCc1cnc2c(C(=O)Nc3cnccc3-c3ccccc3)c(N)nn2c1` [I-C-6, 2-amino-6-(cyanomethyl)-N-(4-phenylpyridin-3-yl)pyrazolo[1,5-a]pyrimidine-3-carboxamide]: the “Cisplatin Sensitization Assay” value is reported as “+++ (Compounds with a Cisplatin sensitization value of <0.02 μM are marked with “+++.”)”.
Regarding `COc1ccc(-c2ccncc2NC(=O)c2c(N)nn3cc(F)cnc23)cn1` [I-C-27, 2-amino-6-fluoro-N-(6-methoxy-[3,4′-bipyridin]-3′-yl)pyrazolo[1,5-a]pyrimidine-3-carboxamide], the “Cisplatin Sensitization Assay” value is “++ (Compounds with a Cisplatin sensitization value >0.02 μM but <0.2 μM are marked with “++.”)”.
`N#CCc1cnc2c(C(=O)Nc3cnccc3O[C@H]3CCOC3)c(N)nn2c1` [I-O-42, (S)-2-amino-6-(cyanomethyl)-N-(4-((tetrahydrofuran-3-yl)oxy)pyridin-3-yl)pyrazolo[1,5-a]pyrimidine-3-carboxamide]: the “Cisplatin Sensitization Assay” value was “+++ (Compounds with a Cisplatin sensitization value of <0.02 μM are marked with “+++.”)”.
Under `Nc1nn2cc(F)cnc2c1C(=O)Nc1cncc(F)c1N1CCC(C(=O)N2CC[C@H](N3CCCC3)C2)CC1` [I-G-58, (S)—N-(4-(4-([1,3′-bipyrrolidine]-1′-carbonyl)piperidin-1-yl)-5-fluoropyridin-3-yl)-2-amino-6-fluoropyrazolo[1,5-a]pyrimidine-3-carboxamide] stands “+++ (Compounds with a Cisplatin sensitization value of <0.02 μM are marked with “+++.”)”; under `Nc1nn2cc(F)cnc2c1C(=O)Nc1cnccc1O[C@@H]1CN2CCC1CC2` [I-O-10, (S)-2-amino-6-fluoro-N-(4-(quinuclidin-3-yloxy)pyridin-3-yl)pyrazolo[1,5-a]pyrimidine-3-carboxamide], “+++ (Compounds with a Cisplatin sensitization value of <0.02 μM are marked with “+++.”)”; under `Cc1ncnn1-c1ccncc1NC(=O)c1c(N)nn2cc(F)cnc12` [I-N-162, 2-amino-6-fluoro-N-(4-(5-methyl-1H-1,2,4-triazol-1-yl)pyridin-3-yl)pyrazolo[1,5-a]pyrimidine-3-carboxamide], “++ (Compounds with a Cisplatin sensitization value >0.02 μM but <0.2 μM are marked with “++.”)”.
Regarding `Nc1nn2cc(F)cnc2c1C(=O)Nc1cnccc1Oc1cccnc1` [I-O-7, 2-amino-6-fluoro-N-(4-(pyridin-3-yloxy)pyridin-3-yl)pyrazolo[1,5-a]pyrimidine-3-carboxamide], the “Cisplatin Sensitization Assay” value is given as “++ (Compounds with a Cisplatin sensitization value >0.02 μM but <0.2 μM are marked with “++.”)”.
Consider `N#CCc1cnc2c(C(=O)Nc3cnccc3N3CCCCCC3)c(N)nn2c1` [I-N-79, 2-amino-N-(4-(azepan-1-yl)pyridin-3-yl)-6-(cyanomethyl)pyrazolo[1,5-a]pyrimidine-3-carboxamide], for which the “Cisplatin Sensitization Assay” value is “++ (Compounds with a Cisplatin sensitization value >0.02 μM but <0.2 μM are marked with “++.”)”.
In the case of `Nc1nn2cc(F)cnc2c1C(=O)Nc1cnccc1N1CCC(C(=O)N2CCOCC2)CC1` [I-G-85, 2-amino-6-fluoro-N-(4-(4-(morpholine-4-carbonyl)piperidin-1-yl)pyridin-3-yl)pyrazolo[1,5-a]pyrimidine-3-carboxamide], the “Cisplatin Sensitization Assay” value is listed as “+++ (Compounds with a Cisplatin sensitization value of <0.02 μM are marked with “+++.”)”.
Take `Nc1nn2cc(F)cnc2c1C(=O)Nc1cncc(F)c1N1CCN(C(=O)C2CC2)CC1` [I-N-276, 2-amino-N-(4-(4-(cyclopropanecarbonyl)piperazin-1-yl)-5-fluoropyridin-3-yl)-6-fluoropyrazolo[1,5-a]pyrimidine-3-carboxamide]: the “Cisplatin Sensitization Assay” value is reported as “+++ (Compounds with a Cisplatin sensitization value of <0.02 μM are marked with “+++.”)”.
Turning to `Nc1nn2cc(F)cnc2c1C(=O)Nc1cnccc1OC1CCOC1` (racemic) [I-O-15, (R,S)-2-amino-6-fluoro-N-(4-((tetrahydrofuran-3-yl)oxy)pyridin-3-yl)pyrazolo[1,5-a]pyrimidine-3-carboxamide], the “Cisplatin Sensitization Assay” value is reported as “+++ (Compounds with a Cisplatin sensitization value of <0.02 μM are marked with “+++.”)”.
For `CN1CCC(Oc2ccncc2NC(=O)c2c(N)nn3cc(Cl)cnc23)CC1` [I-O-64, 2-amino-6-chloro-N-(4-((1-methylpiperidin-4-yl)oxy)pyridin-3-yl)pyrazolo[1,5-a]pyrimidine-3-carboxamide], the “Cisplatin Sensitization Assay” value is “+++ (Compounds with a Cisplatin sensitization value of <0.02 μM are marked with “+++.”)”.
`CN(C)CCN(C)C(=O)C1CCN(c2c(F)cncc2NC(=O)c2c(N)nn3cc(F)cnc23)CC1` [I-G-31, 2-amino-N-(4-(4-((2-(dimethylamino)ethyl)(methyl)carbamoyl)piperidin-1-yl)-5-fluoropyridin-3-yl)-6-fluoropyrazolo[1,5-a]pyrimidine-3-carboxamide]: the “Cisplatin Sensitization Assay” value is recorded as “+++ (Compounds with a Cisplatin sensitization value of <0.02 μM are marked with “+++.”)”.
As for `CN1CCN(C(=O)N2CCN(c3c(F)cncc3NC(=O)c3c(N)nn4cc(F)cnc34)CC2)CC1` [I-N-140, 2-amino-6-fluoro-N-(5-fluoro-4-(4-(4-methylpiperazine-1-carbonyl)piperazin-1-yl)pyridin-3-yl)pyrazolo[1,5-a]pyrimidine-3-carboxamide], the “Cisplatin Sensitization Assay” value is “+++ (Compounds with a Cisplatin sensitization value of <0.02 μM are marked with “+++.”)”.
Turning to `Nc1nn2cc(F)cnc2c1C(=O)Nc1cncc(F)c1N1CCC(S(=O)(=O)N2CCN3CCC2CC3)CC1` [I-N-273, N-(4-(4-(1,4-diazabicyclo[3.2.2]nonan-4-ylsulfonyl)piperidin-1-yl)-5-fluoropyridin-3-yl)-2-amino-6-fluoropyrazolo[1,5-a]pyrimidine-3-carboxamide], the “Cisplatin Sensitization Assay” value was “+++ (Compounds with a Cisplatin sensitization value of <0.02 μM are marked with “+++.”)”.
The entry for `CN1CCCCC1C(=O)N1CCN(c2c(F)cncc2NC(=O)c2c(N)nn3cc(F)cnc23)CC1` (centres unmarked) [I-N-173, 2-amino-6-fluoro-N-(5-fluoro-4-(4-(1-methylpiperidine-2-carbonyl)piperazin-1-yl)pyridin-3-yl)pyrazolo[1,5-a]pyrimidine-3-carboxamide] is “+++ (Compounds with a Cisplatin sensitization value of <0.02 μM are marked with “+++.”)”; for `CN(C)CC(=O)N1CCN(c2c(F)cncc2NC(=O)c2c(N)nn3cc(F)cnc23)CC1` [I-N-153, 2-amino-N-(4-(4-(2-(dimethylamino)acetyl)piperazin-1-yl)-5-fluoropyridin-3-yl)-6-fluoropyrazolo[1,5-a]pyrimidine-3-carboxamide] it is “++ (Compounds with a Cisplatin sensitization value >0.02 μM but <0.2 μM are marked with “++.”)”.
The entry for `CC(C)(C#N)c1cnc2c(C(=O)Nc3cncc(F)c3N3CCN(C4COC4)CC3)c(N)nn2c1` [I-N-144] is “+++ (Compounds with a Cisplatin sensitization value of <0.02 μM are marked with “+++.”)”.
In the case of `Nc1nn2cc(F)cnc2c1C(=O)Nc1cncc(F)c1N1CCC(C(=O)NCCN2CCC2)CC1` [I-G-42, 2-amino-N-(4-(4-((2-(azetidin-1-yl)ethyl)carbamoyl)piperidin-1-yl)-5-fluoropyridin-3-yl)-6-fluoropyrazolo[1,5-a]pyrimidine-3-carboxamide], the “Cisplatin Sensitization Assay” value is listed as “+++ (Compounds with a Cisplatin sensitization value of <0.02 μM are marked with “+++.”)”.
On to `CS(=O)(=O)CC1CCN(c2ccncc2NC(=O)c2c(N)nn3cc(F)cnc23)CC1` [I-N-215, 2-amino-6-fluoro-N-(4-(4-((methylsulfonyl)methyl)piperidin-1-yl)pyridin-3-yl)pyrazolo[1,5-a]pyrimidine-3-carboxamide], for which the “Cisplatin Sensitization Assay” value is given as “+++ (Compounds with a Cisplatin sensitization value of <0.02 μM are marked with “+++.”)”.
As to `CCn1cncc1-c1ccncc1NC(=O)c1c(N)nn2cc(F)cnc12` [I-C-80, 2-amino-N-(4-(1-ethyl-1H-imidazol-5-yl)pyridin-3-yl)-6-fluoropyrazolo[1,5-a]pyrimidine-3-carboxamide], the “Cisplatin Sensitization Assay” value was “+++ (Compounds with a Cisplatin sensitization value of <0.02 μM are marked with “+++.”)”.
With `Nc1nn2cc(F)cnc2c1C(=O)Nc1cncc(F)c1N1CCN(C(=O)C23CCN(CC2)CC3)CC1` [I-N-134, 2-amino-6-fluoro-N-(5-fluoro-4-(4-(quinuclidine-4-carbonyl)piperazin-1-yl)pyridin-3-yl)pyrazolo[1,5-a]pyrimidine-3-carboxamide], the “Cisplatin Sensitization Assay” value was “+ (Compounds with a Cisplatin sensitization value >0.2 μM but <5 μM are marked with “+.”)”.
As to `Nc1nn2cc(F)cnc2c1C(=O)Nc1cncc(Cl)c1N1CCN(C2CCOC2)CC1` (centres unmarked) [I-N-124, 2-amino-N-(5-chloro-4-(4-(tetrahydrofuran-3-yl)piperazin-1-yl)pyridin-3-yl)-6-fluoropyrazolo[1,5-a]pyrimidine-3-carboxamide], the “Cisplatin Sensitization Assay” value is listed as “+++ (Compounds with a Cisplatin sensitization value of <0.02 μM are marked with “+++.”)”.
Take `Nc1nn2cc(F)cnc2c1C(=O)Nc1cnccc1-c1ccc(C(=O)N2CCN(C3COC3)CC2)cc1` [I-C-49, 2-amino-6-fluoro-N-(4-(4-(4-(oxetan-3-yl)piperazine-1-carbonyl)phenyl)pyridin-3-yl)pyrazolo[1,5-a]pyrimidine-3-carboxamide]: the “Cisplatin Sensitization Assay” value is recorded as “+++ (Compounds with a Cisplatin sensitization value of <0.02 μM are marked with “+++.”)”.
